Data reported in publication PMC7718943, “In silico molecular target prediction unveils mebendazole as a potent MAPK14 inhibitor” (Molecular Oncology, 2020).
Read-outs that look alike come from different tables or passages of the source.

What was measured:
MAPK14 (MAPK14/p38α) = molecular target: T1, MAPK14 (MAPK14/p38α) (Homo sapiens, UniProt Q16539); assay: ADP-Glo kinase assay; assay type: biochemical; details: read-out: IC50 value (μM) ± SD / MAPK14
T1 construct: commercial enzyme of Promega kinase assay

ERK2 (MAPK1) = molecular target: T2, ERK2 (MAPK1) (Homo sapiens, UniProt P28482); assay: ADP-Glo kinase assay; assay type: biochemical; details: read-out: IC50 value (μM) ± SD / ERK2
T2 construct: commercial enzyme of Promega kinase assay
From the text: ADP-Glo kinase assay on ERK2 (MAPK1)

ABL1 = molecular target: T3, ABL1 (Homo sapiens, UniProt P00519); assay: ADP-Glo kinase assay; assay type: biochemical
T3 construct: commercial enzyme of Promega kinase assay

[1] = molecular target: T4, MAPK14 (wild-type, His-tagged, pET28a) (Homo sapiens, UniProt Q16539); assay: isothermal titration calorimetry; assay type: binding
T4 construct: wild type, pET28a vector, His tag conserved for ITC and TSA

[2] = molecular target: T4, MAPK14 (wild-type, His-tagged, pET28a); assay: fluorescence thermal shift assay; assay type: binding; details: read-out: dTm
[3] = read-out: IC50 value (μM) ± SD / ABL1

T2 sequence (P28482 2-360): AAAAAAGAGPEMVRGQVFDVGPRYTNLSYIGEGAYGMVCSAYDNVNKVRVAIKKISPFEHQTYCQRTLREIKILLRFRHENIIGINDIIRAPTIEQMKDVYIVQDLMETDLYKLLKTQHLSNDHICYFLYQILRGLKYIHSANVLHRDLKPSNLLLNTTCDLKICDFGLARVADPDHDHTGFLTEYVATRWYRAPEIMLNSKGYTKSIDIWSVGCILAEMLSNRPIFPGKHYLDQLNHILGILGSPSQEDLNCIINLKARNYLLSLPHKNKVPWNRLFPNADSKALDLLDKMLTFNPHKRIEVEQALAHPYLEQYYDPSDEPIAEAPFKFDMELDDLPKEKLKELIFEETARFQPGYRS
T1 sequence (Q16539 2-360): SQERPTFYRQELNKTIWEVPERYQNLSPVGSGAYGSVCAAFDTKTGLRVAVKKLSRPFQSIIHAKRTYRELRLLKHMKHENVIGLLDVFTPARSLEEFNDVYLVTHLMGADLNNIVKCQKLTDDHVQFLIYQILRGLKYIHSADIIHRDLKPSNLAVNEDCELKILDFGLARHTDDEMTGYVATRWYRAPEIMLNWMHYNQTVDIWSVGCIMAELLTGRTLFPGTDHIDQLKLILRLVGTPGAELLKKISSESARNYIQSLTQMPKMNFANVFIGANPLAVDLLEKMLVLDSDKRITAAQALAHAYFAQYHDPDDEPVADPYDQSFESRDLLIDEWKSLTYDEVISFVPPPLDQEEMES
T3 sequence (P00519 whole entry): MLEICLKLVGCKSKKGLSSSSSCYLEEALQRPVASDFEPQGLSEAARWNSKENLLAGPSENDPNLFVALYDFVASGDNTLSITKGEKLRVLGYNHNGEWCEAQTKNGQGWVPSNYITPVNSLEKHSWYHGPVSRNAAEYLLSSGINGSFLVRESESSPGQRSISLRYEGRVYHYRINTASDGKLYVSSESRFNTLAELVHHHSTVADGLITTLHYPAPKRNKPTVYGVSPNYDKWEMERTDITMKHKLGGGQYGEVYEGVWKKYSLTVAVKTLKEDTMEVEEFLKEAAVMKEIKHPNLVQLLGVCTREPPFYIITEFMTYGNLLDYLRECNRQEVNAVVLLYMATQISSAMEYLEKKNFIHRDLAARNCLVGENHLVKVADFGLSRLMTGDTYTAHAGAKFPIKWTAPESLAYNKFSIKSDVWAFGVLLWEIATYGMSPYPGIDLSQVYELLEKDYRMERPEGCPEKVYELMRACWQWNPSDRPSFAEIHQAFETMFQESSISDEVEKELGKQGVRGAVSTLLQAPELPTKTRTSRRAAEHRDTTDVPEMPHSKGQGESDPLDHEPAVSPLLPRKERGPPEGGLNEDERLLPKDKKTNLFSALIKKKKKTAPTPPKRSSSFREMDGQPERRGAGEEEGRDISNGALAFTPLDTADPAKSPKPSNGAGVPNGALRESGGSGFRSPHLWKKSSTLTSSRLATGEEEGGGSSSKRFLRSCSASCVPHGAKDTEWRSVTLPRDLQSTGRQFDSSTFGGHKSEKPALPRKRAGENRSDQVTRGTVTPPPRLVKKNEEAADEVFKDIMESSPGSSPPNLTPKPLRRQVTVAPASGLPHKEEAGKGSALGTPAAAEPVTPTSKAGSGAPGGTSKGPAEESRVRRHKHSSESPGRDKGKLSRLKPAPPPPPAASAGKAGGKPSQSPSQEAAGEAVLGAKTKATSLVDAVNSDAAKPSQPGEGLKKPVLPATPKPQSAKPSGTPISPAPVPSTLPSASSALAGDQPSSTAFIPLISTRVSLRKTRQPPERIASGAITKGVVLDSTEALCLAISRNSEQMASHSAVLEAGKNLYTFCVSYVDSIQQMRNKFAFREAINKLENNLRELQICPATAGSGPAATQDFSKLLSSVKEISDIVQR
T4 sequence (Q16539 whole entry): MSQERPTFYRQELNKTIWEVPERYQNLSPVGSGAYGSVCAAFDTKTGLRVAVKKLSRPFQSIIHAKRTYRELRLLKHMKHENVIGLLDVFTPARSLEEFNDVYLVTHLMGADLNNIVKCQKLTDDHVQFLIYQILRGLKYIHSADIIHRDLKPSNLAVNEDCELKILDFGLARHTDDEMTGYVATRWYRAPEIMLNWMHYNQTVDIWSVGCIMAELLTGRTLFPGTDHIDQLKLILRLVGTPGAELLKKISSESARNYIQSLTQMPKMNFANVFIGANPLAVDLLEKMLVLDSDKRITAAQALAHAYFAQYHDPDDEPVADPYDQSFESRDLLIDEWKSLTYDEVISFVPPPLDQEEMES

Structure (SMILES) | IC50 (MAPK14 (MAPK14/p38α)) | IC50 (ERK2 (MAPK1)) | IC50 (ABL1; [3]) | Kd [1] | ΔTm at 50 µM [2] | IC50 (ABL1; read-out: IC50)
CCCSc1ccc2nc(NC(=O)OC)[nH]c2c1 [Albendazole] | > 50 µM | 3.4 ± 1.5 µM | 0.9 ± 0.6 µM | – | – | –
COC(=O)Nc1nc2ccc(Sc3ccccc3)cc2[nH]1 [Fenbendazole] | 10.7 ± 4.9 µM | > 50 µM | 0.19 ± 0.07 µM | – | – | –
COC(=O)Nc1nc2cc(C(=O)c3ccc(F)cc3)ccc2[nH]1 [Flubendazole] | 5.5 ± 2.7 µM | 15.9 ± 8 µM | 0.11 ± 0.05 µM | – | – | –
COC(=O)Nc1nc2ccc(C(=O)c3ccccc3)cc2[nH]1 [Mebendazole] | – | 24.7 ± 10.4 µM | 0.35 ± 0.12 µM | 1.27 ± 0.02 µM | 3.7 °C | –
COC(=O)Nc1nc2ccc(C(=O)c3cccs3)cc2[nH]1 [Nocodazole] | 2.8 ± 5.6 µM | 26.9 ± 16.2 µM | – | – | – | 0.078 ± 0.034 µM
